In ChEMBL document CHEMBL4308841, “Synthesis, in vitro antiproliferative activity, and kinase inhibitory effects of pyrazole-containing diarylureas and diarylamides” (Eur J Med Chem, 2018):

Tests used:
MCF7 = assay: Growth inhibition of human MCF7 cells assessed as cell growth at 1 uM incubated for 48 hrs by sulforhodamine B assay relative to control; type: functional; conditions: MCF7, 48 h, read-out: Activity
ACHN = assay: Growth inhibition of human ACHN cells assessed as cell growth at 1 uM incubated for 48 hrs by sulforhodamine B assay relative to control; type: functional; conditions: read-out: Activity
RXF 393 [1] = assay: Growth inhibition of human RXF393 cells assessed as cell growth at 0.1 uM incubated for 48 hrs by sulforhodamine B assay relative to control; type: functional; conditions: RXF 393, 48 h, read-out: Activity
SR = assay: Growth inhibition of human SR cells incubated for 48 hrs by sulforhodamine B assay; type: functional, cell-based
UACC-257 = assay: Growth inhibition of human UACC257 cells assessed as cell growth at 0.01 uM incubated for 48 hrs by sulforhodamine B assay relative to control; type: functional; conditions: UACC-257, 48 h, read-out: Activity
M14 = assay: Growth inhibition of human M14 cells incubated for 48 hrs by sulforhodamine B assay; type: functional, cell-based; conditions: M14, 48 h
MOLT-4 = assay: Growth inhibition of human MOLT4 cells assessed as cell growth at 1 uM incubated for 48 hrs by sulforhodamine B assay relative to control; type: functional; conditions: MOLT-4, 48 h, read-out: Activity
SW-620 = assay: Growth inhibition of human SW620 cells assessed as cell growth at 0.01 uM incubated for 48 hrs by sulforhodamine B assay relative to control; type: functional; conditions: SW-620, 48 h, read-out: Activity
NCI-H460 = assay: Growth inhibition of human NCI-H460 cells incubated for 48 hrs by sulforhodamine B assay; type: functional, cell-based; conditions: NCI-H460, 48 h
BT-549 [2] = assay: Growth inhibition of human BT549 cells assessed as cell growth at 1 uM incubated for 48 hrs by sulforhodamine B assay relative to control; type: functional; conditions: BT-549, 48 h, read-out: Activity
RPMI-8226 = assay: Growth inhibition of human RPMI8226 cells assessed as cell growth at 1 uM incubated for 48 hrs by sulforhodamine B assay relative to control; type: functional; conditions: RPMI-8226, 48 h, read-out: Activity
786-0 [3] = assay: Growth inhibition of human 786-0 cells assessed as cell growth at 0.01 uM incubated for 48 hrs by sulforhodamine B assay relative to control; type: functional; conditions: 786-0, 48 h, read-out: Activity
A498 [4] = assay: Growth inhibition of human A498 cells assessed as cell growth at 0.1 uM incubated for 48 hrs by sulforhodamine B assay relative to control; type: functional; conditions: A498, 48 h, read-out: Activity
HCT-116 = assay: Growth inhibition of human HCT116 cells assessed as cell growth at 1 uM incubated for 48 hrs by sulforhodamine B assay relative to control; type: functional; conditions: HCT-116, 48 h, read-out: Activity
OVCAR-3 = assay: Growth inhibition of human OVCAR3 cells incubated for 48 hrs by sulforhodamine B assay; type: functional, cell-based; conditions: OVCAR-3, 48 h
MDA-MB-468 = assay: Growth inhibition of human MDA-MB-468 cells assessed as cell growth at 0.01 uM incubated for 48 hrs by sulforhodamine B assay relative to control; type: functional; conditions: MDA-MB-468, 48 h, read-out: Activity
IGROV-1 = assay: Growth inhibition of human IGROV1 cells incubated for 48 hrs by sulforhodamine B assay; type: functional, cell-based; conditions: IGROV-1, 48 h
BT-549 [5] = assay: Growth inhibition of human BT549 cells assessed as cell growth at 0.01 uM incubated for 48 hrs by sulforhodamine B assay relative to control; type: functional; conditions: BT-549, 48 h, read-out: Activity
RXF 393 [6] = assay: Growth inhibition of human RXF393 cells assessed as cell growth at 1 uM incubated for 48 hrs by sulforhodamine B assay relative to control; type: functional; conditions: RXF 393, 48 h, read-out: Activity
SF-539 = assay: Growth inhibition of human SF539 cells assessed as cell growth at 1 uM incubated for 48 hrs by sulforhodamine B assay relative to control; type: functional; conditions: SF-539, 48 h, read-out: Activity
NCI/ADR-RES = assay: Growth inhibition of human NCI/ADR-RES cells incubated for 48 hrs by sulforhodamine B assay; type: functional, cell-based
HCC 2998 = assay: Growth inhibition of human HCC2998 cells assessed as cell growth at 100 uM incubated for 48 hrs by sulforhodamine B assay relative to control; type: functional; conditions: HCC 2998, 48 h, read-out: Activity
HL-60(TB) = assay: Growth inhibition of human HL-60(TB) cells assessed as cell growth at 0.1 uM incubated for 48 hrs by sulforhodamine B assay relative to control; type: functional; conditions: HL-60, 48 h, read-out: Activity
PC-3 = assay: Growth inhibition of human PC3 cells incubated for 48 hrs by sulforhodamine B assay; type: functional, cell-based; conditions: PC-3, 48 h
A498 [7] = assay: Growth inhibition of human A498 cells incubated for 48 hrs by sulforhodamine B assay; type: functional, cell-based; conditions: A498, 48 h
SN12C = assay: Growth inhibition of human SN12C cells assessed as cell growth at 100 uM incubated for 48 hrs by sulforhodamine B assay relative to control; type: functional; conditions: read-out: Activity
786-0 [8] = assay: Growth inhibition of human 786-0 cells incubated for 48 hrs by sulforhodamine B assay; type: functional, cell-based; conditions: 786-0, 48 h
[9] = read-out: LC50 (the source's name)
[10] = read-out: pLC50 (the source's name) (converted)

O=C(Nc1cccc(-n2cc(-c3ccncc3)c(-c3cc(O)cc(Cl)c3)n2)c1)Nc1ccc(Cl)c(Cl)c1
growth at 1 µM (MCF7): 91%
growth at 1 µM (ACHN): 79%
growth at 0.1 µM (RXF 393 [1]): 85%
GI50 (SR; read-out: GI50): 1300 nM
CC50 (SR; [9]): > 100 µM
TGI (SR; read-out: TGI): 42.4 µM
GI50 (SR; read-out: pGI50 (converted)): 1320 nM
CC50 (SR; [10]): > 100 µM
TGI (SR; read-out: pTGI (converted)): 4.27 µM
growth at 0.01 µM (UACC-257): 96%
GI50 (M14; read-out: GI50): 1440 nM
CC50 (M14; [9]): 7.44 µM
TGI (M14; read-out: TGI): 32.8 µM
GI50 (M14; read-out: pGI50 (converted)): 1450 nM
CC50 (M14; [10]): 7.41 µM
TGI (M14; read-out: pTGI (converted)): 3.31 µM
growth at 1 µM (MOLT-4): 84%
growth at 0.01 µM (SW-620): 96%
GI50 (NCI-H460; read-out: GI50): 2180 nM
CC50 (NCI-H460; [9]): > 100 µM
TGI (NCI-H460; read-out: TGI): 61.4 µM
GI50 (NCI-H460; read-out: pGI50 (converted)): 2190 nM
CC50 (NCI-H460; [10]): > 100 µM
TGI (NCI-H460; read-out: pTGI (converted)): 6.17 µM
growth at 1 µM (BT-549 [2]): 89%
growth at 1 µM (RPMI-8226): 57%
growth at 0.01 µM (786-0 [3]): 92%
growth at 0.1 µM (A498 [4]): 94%
growth at 1 µM (HCT-116): 82%
IC50 (OVCAR-3): 1960 nM
GI50 (OVCAR-3; read-out: GI50): 1960 nM
CC50 (OVCAR-3; [9]): > 100 µM
TGI (OVCAR-3; read-out: TGI): 50.5 µM
GI50 (OVCAR-3; read-out: pGI50 (converted)): 1950 nM
CC50 (OVCAR-3; [10]): > 100 µM
TGI (OVCAR-3; read-out: pTGI (converted)): 5.01 µM
growth at 0.01 µM (MDA-MB-468): 92%
GI50 (IGROV-1; read-out: GI50): 2560 nM
CC50 (IGROV-1; [9]): > 100 µM
TGI (IGROV-1; read-out: TGI): 92.3 µM
GI50 (IGROV-1; read-out: pGI50 (converted)): 2880 nM
CC50 (IGROV-1; [10]): > 100 µM
TGI (IGROV-1; read-out: pTGI (converted)): 9.33 µM
growth at 0.01 µM (BT-549 [5]): 94%
growth at 1 µM (RXF 393 [6]): 38%
growth at 1 µM (SF-539): 72%
GI50 (NCI/ADR-RES; read-out: GI50): 3.21 µM
CC50 (NCI/ADR-RES; [9]): > 100 µM
TGI (NCI/ADR-RES; read-out: TGI): > 100 µM
GI50 (NCI/ADR-RES; read-out: pGI50 (converted)): 3.24 µM
CC50 (NCI/ADR-RES; [10]): > 100 µM
TGI (NCI/ADR-RES; read-out: pTGI (converted)): > 100 µM
growth at 100 µM (HCC 2998): -55%
growth at 0.1 µM (HL-60(TB)): 100%
IC50 (PC-3): 1690 nM
GI50 (PC-3; read-out: GI50): 1590 nM
CC50 (PC-3; [9]): > 100 µM
TGI (PC-3; read-out: TGI): 58.8 µM
GI50 (PC-3; read-out: pGI50 (converted)): 1700 nM
CC50 (PC-3; [10]): > 100 µM
TGI (PC-3; read-out: pTGI (converted)): 5.62 µM
GI50 (A498 [7]; read-out: GI50): 2090 nM
CC50 (A498 [7]; [9]): 4.13 µM
TGI (A498 [7]; read-out: TGI): 90.6 µM
GI50 (A498 [7]; read-out: pGI50 (converted)): 2090 nM
CC50 (A498 [7]; [10]): 41.7 µM
TGI (A498 [7]; read-out: pTGI (converted)): 9.12 µM
growth at 100 µM (SN12C): -15%
GI50 (786-0 [8]; read-out: GI50): 1480 nM
CC50 (786-0 [8]; [9]): 9.31 µM
TGI (786-0 [8]; read-out: TGI): 37.1 µM
GI50 (786-0 [8]; read-out: pGI50 (converted)): 1480 nM
CC50 (786-0 [8]; [10]): 9.33 µM
TGI (786-0 [8]; read-out: pTGI (converted)): 3.72 µM
